Source: patent US9540619B2, “MELK regulation for the treatment of breast cancer” (NOVARTIS AG, priority 2013, dated 2017)
Entries after “also recorded” stand apart in the source; their conditions may differ. Where a SMILES comes first, the peptide text is derived from it. The star is where a group is joined. Cbz = O=C(OCc1ccccc1)*; CH2F = FC*

Experiments:
Format in all cases: cell-based, human
FoxM1 [1] = assay: MELK abundance after FoxM1 inhibition (immunoblotting)
Experimental: Cells were lysed with RIPA buffer (25 mM Tris, pH 7.4, 150 mM NaCl, 1% Nonidet P-40, 0.5% sodium deoxycholate, and 0.1% sodium dodecyl sulfate) supplemented with protease inhibitors cocktail (Roche) and phosphatase inhibitors cocktail (Thermo Scientific). Cleared lysates were analyzed for protein concentration using BCA kit (Thermo Scientific). Equal amount of protein (10-20 μg) was resolved on 8% or 10% SDS-PAGE, and was subsequently transferred onto a nitrocellulose or polyvinylidene difluoride membrane (Amersham). The membrane was blocked with 5% non-fat milk and was then incubated with primary antibodies overnight at 4° C. After washing, the membrane was incubated with fluorophore-conjugated secondary antibodies for 1 h at room temperature. The membrane was then washed and scanned with an Odyssey Infrared scanner (Li-Cor Biosciences). Primary antibodies used in this study include anti MELK (Epitomics, #2916), anti-α-tubulin (Abcam), anti-cyclin B1 (Millipore), anti-Vinculin (Sigma), anti-FoxM1 (Santa Cruz), anti-β-tubulin, anti-phopho-Akt (S473), anti-phospho Akt (T308), anti-total Akt, anti-Flag, anti-cleaved PARP (Asp214), anti-cleaved Caspase 3, anti-AURKA, anti-AURKB, anti-p27 (all from Cell Signaling Technology). Secondary antibodies used were IRDye700-conjugated anti-rabbit IgG and IRDye800-conjugated anti-mouse IgG (Rockland).

[2] = test system: luminal cell lines, MCF7 and T47D; assay: Cell proliferation assay (crystal violet) upon doxycycline-induced shRNA; conditions: knockdown induced with doxycycline 100 ng/ml
Experimental: (§1) Typically, breast cancer cells were seeded in 12-well plates (1-2×10^4) in 1 ml medium. On the next day, wells were added with 110 μl medium without or with 1 μg/ml doxycycline (to reach a final concentration of 100 ng/ml), which was repeated every two days. Six days after the initial treatment, cells were fixed with formaldehyde, and stained with crystal violet (0.05%, weight/volume), a chromatin-binding cytochemical stain. The plates were washed extensively, and imaged with a flatbed scanner. For quantification of the staining, 1 ml 10% acetic acid was added to each well to extract the dye. The absorbance was measured at 590 nm with 750 nm as a reference.

[3] = test system: BBC cells including BT549, MDA-MB-468, MDA-MB-231, and MDA-MB-436; assay: as above; conditions: knockdown induced with doxycycline 100 ng/ml; crystal violet staining six days after initial treatment
Experimental: as §1

FoxM1 [4] = assay: MELK transcription after FoxM1 inhibition (qRT-PCR); conditions: cells treated for 16 h; quantitative PCR
Experimental: Total RNA was extracted from cultured cells with RNeasy Mini kit (Qiagen), with the use of QIAshredder spin column for homogenization and an on-column DNase digestion. Two micrograms of the total RNA was reversely transcribed using a High Capacity RNA to-cDNA Kit (Applied Biosystems). cDNAs were analyzed quantitatively using Power SYBR Green PCR Master Mix (Applied Biosystems) on an ABI7300 Real-time PCR system. Cycling conditions were 95° C. for 15 min, 40 cycles of 15 s at 94° C., 30 s at 55° C. and 30 s at 72° C. Ct values were generated using the default analysis settings. ΔCT was defined as Ctgene of interest-Ctβactin. ΔΔCT was defined as ΔCttreated sample-Ctcontrol sample. Relative quantification (RQ) was calculated as 2^−ΔΔCT. Statistical analysis was performed by Student's test.

caspases = assay: MELK knockdown-induced cell death with pan-caspase inhibitor; conditions: MDA-MB-468 cells with shMELK, doxycycline 4 days, last two days with 40 μM zVad-fmk

| Molecule | growth of luminal cell lines upon induction of the shRNA [2] | growth of BBC cells upon induction of the shRNA [3] | also measured |
| --- | --- | --- | --- |
| ggaccacuuucccuacuuu [siRNA (SEQ ID NO: 31)] | – | – | abundance/expression of MELK protein (FoxM1 [1]; siRNA transfection, lysates three days after transfection): reduced the abundance of MELK; abundance/expression of MELK protein (FoxM1 [1]; siRNA transfection, lysates three days after transfection, listed as siRNA targeting FoxM1): suppresses MELK expression |
| GCCTGAAAGAAACTCCAATTA (expressed or natural sequence; the letters are possibly those of the target site) [shMELK2, ID; NO: 4] | protected from the induction of MELK silencing | strongly impaired the growth | – |
| GGTGTGATACAGCCTACATAA (expressed or natural sequence; the letters are possibly those of the target site) [shMELK1, ID; NO: 3] | protected from the induction of MELK silencing | strongly impaired the growth | – |
| C=C(NC(=O)C(=C)NC(=O)c1csc(C2=N[C@@H]3c4csc(n4)[C@H]4NC(=O)c5csc(n5)[C@H]([C@](C)(O)[C@@H](C)O)NC(=O)[C@H]5CSC(=N5)/C(=C/C)NC(=O)[C@H]([C@@H](C)O)NC(=O)c5csc(n5)[C@]3(CC2)NC(=O)[C@H](C)NC(=O)C(=C)NC(=O)[C@H](C)NC(=O)[C@H]([C@@H](C)CC)N[C@@H]2C=Cc3c([C@H](C)O)cc(nc3[C@H]2O)C(=O)O[C@@H]4C)n1)C(N)=O [thiostrepton] | – | – | abundance/expression of MELK protein (FoxM1 [1]; MDA-MB-231 cells, 10 μM thiostrepton vs vehicle (0.1% DMSO)): reduced the abundance of MELK; also recorded: downregulates the expression of MELK; transcription of MELK (FoxM1 [4]): decreases the transcription of MELK |
| COC(=O)C[C@H](NC(=O)[C@H](C)NC(=O)[C@@H](NC(=O)OCc1ccccc1)C(C)C)C(=O)CF [zVad, zVad-fmk] (Cbz-Val-Ala-Asp(OMe)-CH2F) | – | – | MELK knockdown-induced cell death (caspases): significantly reduced MELK knockdown-induced cell death |
| GACTAAAGCTTCACTATAATG (expressed or natural sequence) [MELK sh-1805, ID; NO: 2] | protected from the induction of MELK silencing | strongly impaired the growth | – |
| GAGAGCTGTTTGACTATATAA (expressed or natural sequence) [MELK sh-413, ID; NO: 1] | protected from the induction of MELK silencing | strongly impaired the growth | – |
